Reference: patent US20210145801A1, “THERAPY FOR PROTEIN MISFOLDING DISEASE” (WREN THERAPEUTICS LIMITED, priority 2018, published 2021)
Entries after “also recorded” stand apart in the source; their conditions may differ. Read-outs that look alike come from different tables or passages of the source.

Assays:
AD worms (GMC101) = test: Automated motility assay (WF-NTP) in AD worms; type: in vivo, C. elegans
Experimental: Standard conditions were used for the propagation of C. elegans (S. Brenner, The genetics of Caenorhabditis elegans. Genetics. 77, 71-94 (1974)). Briefly, the animals were synchronized by hypochlorite bleaching, hatched overnight in M9 buffer (3 g/l KH2PO4, 6 g/l Na2HPO4, 5 g/l NaCl, […]), and subsequently cultured at 20° C. on nematode growth medium (NGM) (CaCl2) 1 mM, MgSO4 1 mM, cholesterol 5 μg/mL, PBS Buffer (250 μM KH2PO4, 67.5 μM KCl, 3.425 mM of NaCl, pH 6), Agar 17 g/L, NaCl 3 g/1, casein 7.5 g/l) plates seeded with the E. coli strain OP50. Saturated cultures of OP50 were grown by inoculating 50 ml of LB medium (tryptone 10 g/l, NaCl 10 g/1, yeast extract 5 g/l) with OP50 and incubating the culture for 16 h at 37° C. NGM plates were seeded with bacteria by adding 350 μl of saturated OP50 to each plate and leaving the plates at 20° C. for 2-3 days. On day 3 after synchronisation, the animals were placed on NGM plates containing 5-fluoro-2′deoxy-uridine (FUDR) (75 μM, unless stated otherwise) to inhibit the growth of offspring.
GMC101 dvIs100 [unc-54p::A-beta-1-42::unc-54 3′UTR+mtl-2p::GFP]. mtl-2p::GFP produces constitutive expression of GFP in intestinal cells. unc-54p::A-beta-1-42 expresses full-length human Aβ42 peptide in body wall muscle cells that aggregates in vivo. […]
(§1) All C. elegans populations were cultured at 20° C. and developmentally synchronized from a 4 h egg-lay. At 64-72 h post-egg-lay (time zero), individuals were transferred to FUDR plates, and body movements were assessed over the times indicated. At different ages, the animals were washed off the plates with M9 buffer and spread over an OP-50 unseeded 9 cm plate, after which their movements were recorded at 20 fps using a recently developed microscopic procedure (M. Perni et al., Massively parallel C. elegans tracking provides multi-dimensional fingerprints for phenotypic discovery. J. Neurosci. Methods. 306, 57-67 (2018)) for 1 min. Up to 600 animals were counted in each experiment in duplicate unless stated otherwise. One experiment that is representative of the three or more measured in each series of experiments is shown, and videos were analysed using a custom-made tracking code (M. Perni et al., Massively parallel C. elegans tracking provides multi-dimensional fingerprints for phenotypic discovery. J. Neurosci. Methods. 306, 57-67 (2018)).
In order to screen for the effect of therapeutics in the most robust way, a wide field-of-view nematode-tracking platform (WF-NTP) was used, which enables the simultaneous investigation of multiple phenotypic readouts on large worm populations. The WF-NTP monitors up 5000 animals in parallel, and the phenotypical readout includes multiple parallel parameters.

[1] = Brain microdialysis time course study (striatum); type: in vivo, male C57BL/6 mice; conditions: 15 mg/kg po; for Netoglitazone (ng/ml) in microdialysate / Netoglitazone (ng/ml) corrected for recovery: striatum; for Netoglitazone (ng/ml) corrected for recovery: recovery 0.11; for concentration at 6 h: terminal sample shortly after 6 hours
Experimental: To further assess the free drug exposure in the CNS following dosing of Netoglitazone an in vivo surgical microdialysis time course study was performed. Microdialysis is a minimally-invasive sampling technique that is used for continuous measurement of free, unbound analyte concentrations in the extracellular fluid of virtually any tissue (e.g. ISF in the brain). The microdialysis technique requires the insertion of a small microdialysis catheter (also referred to as microdialysis probe) into the tissue of interest. The microdialysis probe is designed to mimic a blood capillary and consists of a shaft with a semipermeable hollow fiber membrane at its tip, which is connected to inlet and outlet tubing. The probe is continuously perfused with an aqueous solution (perfusate) that closely resembles the (ionic) composition of the surrounding tissue fluid at a low flow rate of approximately 0.1-5 μL/min. Once inserted into the tissue or (body)fluid of interest, small solutes can cross the semipermeable membrane by passive diffusion. The direction of the analyte flow is determined by the respective concentration gradient and allows the usage of microdialysis probes as sampling as well as delivery tools. The solution leaving the probe (dialysate) is collected at certain time intervals for analysis. It is widely recognised as the ‘gold standard’ technique for measuring free drug levels in the CNS. Briefly, 3 male C57BL/6 mice (18 weeks old) were surgically prepared with one cannula in the brain to allow for microdialysis sampling from the striatum. Animals were allowed one day to recover and then habituated to the microdialysis cages overnight. On the study day, a microdialysis probe was inserted through the implanted cannula. […] At the end of the experiment animals were anaesthetised and terminal blood and brain samples collected.

PD worms (NL5901) = test: Automated motility assay in PD worms; type: in vivo, C. elegans; conditions: same concentration range as in AD worms
Experimental: Standard conditions were used for the propagation of C. elegans (S. Brenner, The genetics of Caenorhabditis elegans. Genetics. 77, 71-94 (1974)). Briefly, the animals were synchronized by hypochlorite bleaching, hatched overnight in M9 buffer (3 g/l KH2PO4, 6 g/l Na2HPO4, 5 g/l NaCl, […]), and subsequently cultured at 20° C. on nematode growth medium (NGM) (CaCl2) 1 mM, MgSO4 1 mM, cholesterol 5 μg/mL, PBS Buffer (250 μM KH2PO4, 67.5 μM KCl, 3.425 mM of NaCl, pH 6), Agar 17 g/L, NaCl 3 g/1, casein 7.5 g/l) plates seeded with the E. coli strain OP50. […]
as §1, with “One experiment that is representative of the three or more measured in each series of experiments is shown, and videos were analysed using a custom-made tracking code (M. Perni et al., Massively parallel C. elegans tracking provides multi-dimensional fingerprints for phenotypic discovery. J. Neurosci. Methods. 306, 57-67 (2018)).” left out

[2] = administered at D3, read at D5 of adulthood

## O=C1NC(=O)C(Cc2ccc3cc(OCc4ccccc4F)ccc3c2)S1 (stereo not shown) [Netoglitazone]
AD worms (GMC101); [2]
  Motility of AD worms after late administration: increase of the worm's mobility; also recorded: improves motility
  Survival rate of AD worms after late administration: increase of the worm's mobility and survival rate; also recorded: improves motility (i) and survival rates
AD worms (GMC101); administered at L4, 0.05-10 μM
  Recovery of dysfunctional phenotype / mobility of AD worms: dose dependent and statistically significant recovery in the dysfunctional phenotype
AD worms (GMC101); administered at L4, D3 of adulthood
  Concentration range of best/maximum protective effect on mobility: 0.5 to 5 µM
[1]
  Crossing of the blood-brain barrier after oral administration: readily crosses the blood-brain barrier
[1]; post administration
  First microdialysate fraction in which compound could be detected: 30 to 60 min
[1]; 0-30 min after dose
  Netoglitazone (ng/ml) in microdialysate: <LLOQ
  Netoglitazone (ng/ml) corrected for recovery: <LLOQ
[1]; 30-60 min after dose
  Netoglitazone (ng/ml) in microdialysate: 0.4 ng/mL
  Netoglitazone (ng/ml) corrected for recovery: 3.6 ng/mL
[1]; 60-90 min after dose
  Netoglitazone (ng/ml) in microdialysate: 0.5 ng/mL
  Netoglitazone (ng/ml) corrected for recovery: 4.5 ng/mL
[1]; 90-120 min after dose
  Netoglitazone (ng/ml) in microdialysate: 0.7 ng/mL
  Netoglitazone (ng/ml) corrected for recovery: 6.4 ng/mL
[1]; 120-150 min after dose
  Netoglitazone (ng/ml) in microdialysate: 0.9 ng/mL
  Netoglitazone (ng/ml) corrected for recovery: 8.2 ng/mL
[1]; 150-180 min after dose
  Netoglitazone (ng/ml) in microdialysate: 1.1 ng/mL
  Netoglitazone (ng/ml) corrected for recovery: 10.0 ng/mL
[1]; 180-210 min after dose
  Netoglitazone (ng/ml) in microdialysate: 1.3 ng/mL
  Netoglitazone (ng/ml) corrected for recovery: 11.8 ng/mL
[1]; 210-240 min after dose
  Netoglitazone (ng/ml) in microdialysate: 1.5 ng/mL
  Netoglitazone (ng/ml) corrected for recovery: 13.6 ng/mL
[1]; 240-270 min after dose
  Netoglitazone (ng/ml) in microdialysate: 1.9 ng/mL
  Netoglitazone (ng/ml) corrected for recovery: 17.3 ng/mL
[1]; 270-300 min after dose
  Netoglitazone (ng/ml) in microdialysate: 2.8 ng/mL
  Netoglitazone (ng/ml) corrected for recovery: 25.5 ng/mL
[1]; 300-330 min after dose
  Netoglitazone (ng/ml) in microdialysate: 3.3 ng/mL
  Netoglitazone (ng/ml) corrected for recovery: 30.0 ng/mL
[1]; 330-360 min after dose
  Netoglitazone (ng/ml) in microdialysate: 3.6 ng/mL
  Netoglitazone (ng/ml) corrected for recovery: 32.7 ng/mL
[1]; male, C57BL/6, mouse, brain / plasma, terminal samples shortly after 6 hours, read-out: Brain:plasma ratio
  Kp at 6 h: 0.8
[1]; male, C57BL/6, mouse, plasma, read-out: Concentration in plasma
  concentration at 6 h: 13300 ng/mL
[1]; male, C57BL/6, mouse, whole brain, read-out: Concentration in brain
  concentration at 6 h: 10300 ng/g
PD worms (NL5901)
  Effect on mobility of PD worms: negligible compared to the observed effect in AD worms
